Assay results from patent US10160748B2 (AbbVie Inc., priority 2015, dated 2018).

target: TNFα trimer (Homo sapiens, UniProt P01375); experiment: TNFα FP Competitive Binding Assay; settings: FP binding assay; 20 nM TNFα trimer, 1 nM OregonGreen488 probe; read-out: TNF IC50
Procedure: TNFα FP Competitive Binding Assay
• 1. Assay Buffer: Prepare 1× Assay Buffer (Water with 47 mM HEPES, 47 mM NaCl, 0.9 mM EDTA, 0.0071% Triton X-100) by adding 25 mL of 1 M HEPES, 5 mL of 5 M NaCl, 1 mL of 0.5 M EDTA, and 375 μL of a 10% Triton X-100 stock to a fresh 500 mL bottle of water. • 2. Assay Mixture: Prepare fresh Assay Mixture containing 20 nM TNFα trimer (60 nM protein) and 1 nM 2′,7′-difluoro-3′,6′-dihydroxy-N-(2-(2-(2-((4-(isoquinolin-8-yl)-3-(4-(isoquinolin-8-yl)phenethoxy)benzyl)oxy)ethoxy)ethoxy)ethyl)-3-oxo-3H-spiro[isobenzofuran-1,9′-xanthene]-5-carboxamide probe in 1× Assay Buffer. Compound Plate Preparation Manual 12-Point 1:3 Dilution Plates: (384 Well Polypropylene Plates)
Top concentration of compounds, 10 mM in DMSO, dispensed in rows A-O in columns 1 and 13. Compounds are serially diluted 1:3 with DMSO in columns 2-12 or 14-24 using a 16-channel Matrix pipettor. Plates stored at −20° C.
Discovery Preps 12-Point 1:3 Dilution Plates: (384 Well Assay Plates)
Top concentration, 5 mM in DMSO, of compounds placed in rows A-O in columns 1 and 13. Compounds are serially diluted 1:3 with DMSO in columns 2-12 or 14-24. Compound solutions are dispensed into replicate assay plates at 410 nL per well. Plates stored at 4° C.
TNFα FP Competitive Binding Assay Protocol
• 1. Compound plates warmed to rt. • 2. Fresh Assay Mixture is prepared. • 3. Assay Mixture (20 μL) is dispensed each well of 384 assay plates using a Thermo Multidrop Combi or 16-channel Matrix pipettor. If Manual 12-point 1:3 Dilution Plates are to be tested, Assay Mix is dispensed into empty plates. Discovery Preps 12-point 1:3 Dilution Plates already contain 410 nL compound solution in DMSO. • 4. For Manual 12-point 1:3 Dilution Plates, 0.7 μL is manually transferred using a 16-channel Matrix pipettor to replicate assay plates containing 20 μL Assay Mixture for a final top compound concentration of 338 μM (3.4% DMSO). • 5. For Discovery Preps 12-point 1:3 Dilution Plates, 20 μL Assay Mixture added the 410 nL compound solution already in the plates yields a final top compound concentration of 100 μM (2.0% DMSO). • 6. Background subtraction controls are wells P1-P8 containing only Assay Buffer. The low % inhibition controls are wells P9-P16 containing only Assay Mix. The high % inhibition are wells P17-P24 containing only 1 nM 2′,7′-difluoro-3′,6′-dihydroxy-N-(2-(2-(2-((4-(isoquinolin-8-yl)-3-(4-(isoquinolin-8-yl)phenethoxy)benzyl)oxy)ethoxy)ethoxy)ethyl)-3-oxo-3H-spiro[isobenzofuran-1,9′-xanthene]-5-carboxamide probe in 1× Assay Buffer. • 7. Plates are incubated at rt for 18-24 h in 37° C. incubator (CO2 is off). • 8. Prior to reading the assay, the plates are placed in a dark cabinet to equilibrate at rt for one hour. • 9. Background-subtracted fluorescence polarization (mP) is measured using a PerkinElmer Envision plate reader. • 10. Raw data is entered into Assay Explorer and dose-response curves are generated using a variable slope curve. Supplies, Materials, and Reagents

Chain of TNFα trimer (P01375 77-233 limits assumed): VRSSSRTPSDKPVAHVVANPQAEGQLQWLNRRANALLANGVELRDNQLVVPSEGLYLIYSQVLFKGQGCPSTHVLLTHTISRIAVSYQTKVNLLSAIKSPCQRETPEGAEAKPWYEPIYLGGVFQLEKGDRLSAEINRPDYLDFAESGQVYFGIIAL

| SMILES | IC50 [µM] |
| --- | --- |
| CC(=O)N1CCN(c2ncc(-c3ccc4c(=O)n(C)n(Cc5ccccc5OC(F)F)c4c3)cn2)CC1 [Example 2.3] | < 1 |
| Cn1c(=O)c2ccc(-c3cnc(N4CC5(COC5)C4)nc3)cc2n1Cc1ccccc1OC(F)F [Example 2.4] | 1 to 10 |
| Cn1c(=O)c2ccc(-c3cnc(N4CC[C@@H](O)C4)nc3)cc2n1Cc1ccccc1OC(F)F [Example 2.5] | > 10 |
| Cn1c(=O)c2ccc(-c3cnc(N4CC[C@@H](C(=O)O)C4)nc3)cc2n1Cc1ccccc1OC(F)F [Example 2.6] | > 10 |
| Cn1c(=O)c2ccc(-c3cnc(NCC4CNC(=O)C4)nc3)cc2n1Cc1ccccc1OC(F)F (centres unmarked) [Example 2.7] | 1 to 10 |
| Cn1c(=O)c2ccc(-c3cnc(N4CC(C5COC5)C4)nc3)cc2n1Cc1ccccc1OC(F)F [Example 2.8] | 1 to 10 |
| Cn1c(=O)c2ccc(-c3cnc(N4CC(O)C4)nc3)cc2n1Cc1ccccc1OC(F)F [Example 2.9] | 1 to 10 |
| Cn1c(=O)c2ccc(-c3cnc(NC4COC4)nc3)cc2n1Cc1ccccc1OC(F)F [Example 2.10] | 1 to 10 |
| Cn1c(=O)c2ccc(-c3cnc(N4CC(CO)C4)nc3)cc2n1Cc1ccccc1OC(F)F [Example 2.11] | 1 to 10 |
| Cn1c(=O)c2ccc(-c3cnc(NCCO)nc3)cc2n1Cc1ccccc1OC(F)F [Example 2.12] | 1 to 10 |
| Cn1c(=O)c2ccc(-c3cnc(N4CC(C(=O)O)C4)nc3)cc2n1Cc1ccccc1OC(F)F [Example 2.13] | > 10 |
| Cn1c(=O)c2ccc(-c3cnc(N4CC5(CC5C(=O)O)C4)nc3)cc2n1Cc1ccccc1OC(F)F (centres unmarked) [Example 2.14] | > 10 |
| Cn1c(=O)c2ccc(-c3cnc(N4CC[C@H](C(=O)O)C4)nc3)cc2n1Cc1ccccc1OC(F)F [Example 2.15] | > 10 |
| CN1CC(CNc2ncc(-c3ccc4c(=O)n(C)n(Cc5ccccc5OC(F)F)c4c3)cn2)CC1=O (centres unmarked) [Example 2.16] | 1 to 10 |
| Cn1c(=O)c2ccc(-c3cnc(N4CC5(CC(C(=O)O)C5)C4)nc3)cc2n1Cc1ccccc1OC(F)F [Example 2.17] | 1 to 10 |
| Cn1c(=O)c2ccc(-c3cnc(N4CC(CC(=O)O)C4)nc3)cc2n1Cc1ccccc1OC(F)F [Example 2.18] | > 10 |
| Cn1c(=O)c2ccc(-c3cnc(NC4CCCCNC4=O)nc3)cc2n1Cc1ccccc1OC(F)F (centres unmarked) [Example 2.19] | 1 to 10 |
| Cn1c(=O)c2ccc(-c3cnc(NC4CCOC4)nc3)cc2n1Cc1ccccc1OC(F)F (centres unmarked) [Example 2.20] | 1 to 10 |
| Cn1c(=O)c2ccc(-c3cnc(NC4CCCOC4)nc3)cc2n1Cc1ccccc1OC(F)F (centres unmarked) [Example 2.21] | 1 to 10 |
| COCCCNc1ncc(-c2ccc3c(=O)n(C)n(Cc4ccccc4OC(F)F)c3c2)cn1 [Example 2.22] | 1 to 10 |
| Cn1c(=O)c2ccc(-c3cnc(N4CCN5C(=O)CCC5C4)nc3)cc2n1Cc1ccccc1OC(F)F (centres unmarked) [Example 2.23] | < 1 |
| Cn1c(=O)c2ccc(-c3cnc(N[C@@H]4CCOC4)nc3)cc2n1Cc1ccccc1OC(F)F [Example 2.24] | 1 to 10 |
| Cn1c(=O)c2ccc(-c3cnc(N4CCN5C(=O)OC[C@H]5C4)nc3)cc2n1Cc1ccccc1OC(F)F [Example 2.25] | < 1 |
| Cn1c(=O)c2ccc(-c3cnc(N4CCN5C(=O)OC[C@@H]5C4)nc3)cc2n1Cc1ccccc1OC(F)F [Example 2.26] | < 1 |
| Cn1c(=O)c2ccc(-c3cnc(N4CCN5C(=O)NCC5C4)nc3)cc2n1Cc1ccccc1OC(F)F (centres unmarked) [Example 2.27, 7-(5-(1-(2-(Difluoromethoxy)benzyl)-2-methyl-3-oxo-2,3-dihydro-1H-indazol-6-yl)pyrimidin-2-yl)hexahydroimidazo[1,5-a]pyrazin-3(2H)-one] | < 1 |

| SMILES | IC50 [µM] |
| --- | --- |
| Cn1c(=O)c2ccc(-c3cnc(N4CCC(c5nsc(=O)[nH]5)CC4)nc3)cc2n1Cc1ccccc1OC(F)F [Example 2.28] | 1 to 10 |
| CC(=O)N1CC[C@H](Nc2ncc(-c3ccc4c(=O)n(C)n(Cc5ccccc5OC(F)F)c4c3)cn2)C1 [Example 3, (S)-6-(2-((1-Acetylpyrrolidin-3-yl)amino)pyrimidin-5-yl)-1-(2-(difluoromethoxy)benzyl)-2-methyl-1H-indazol-3(2H)-one] | 1 to 10 |
| Cn1c(=O)c2ccc(-c3cc(N4CCOCC4)ncc3Cl)cc2n1Cc1cccc(F)c1 [Example 3.1] | > 10 |
| Cn1c(=O)c2ccc(-c3cnc(CN4CC(C(=O)O)C4)nc3)cc2n1Cc1ccccc1OC(F)F [Example 4, 1-((5-(1-(2-(Difluoromethoxy)benzyl)-2-methyl-3-oxo-2,3-dihydro-1H-indazol-6-yl)pyrimidin-2-yl)methyl)azetidine-3-carboxylic acid] | > 10 |
| Cn1c(=O)c2ccc(-c3cc(N4CCOCC4)ncc3Cl)cc2n1Cc1ccccc1OC(F)F [Example 4.1] | > 10 |
| Cn1c(=O)c2ccc(-c3cnc(N4CCOCC4)nc3)cc2n1Cc1ccccc1OC(F)F [Example 5, 1-(2-(Difluoromethoxy)benzyl)-2-methyl-6-(2-morpholinopyrimidin-5-yl)-1H-indazol-3(2H)-one] | < 1 |
| Cn1c(=O)c2ccc(-c3cnc(N4CCNC(=O)C4)nc3)cc2n1Cc1ccccc1OC(F)F [Example 5.1] | 1 to 10 |
| Cn1c(=O)c2ccc(-c3ccc(N4CCOCC4)nc3)cc2n1Cc1ccccc1OC(F)F [Example 5.2] | 1 to 10 |
| Cn1c(=O)c2ccc(-c3ccc(N4CCNC(=O)C4)nc3)cc2n1Cc1ccccc1OC(F)F [Example 5.3] | 1 to 10 |
| COc1ncc(-c2ccc3c(=O)n(C)n(Cc4ccccc4OC(F)F)c3c2)cn1 [Example 5.4] | 1 to 10 |
| Cn1c(=O)c2ccc(-c3cnc(N4CCC(C(=O)O)CC4)nc3)cc2n1Cc1ccccc1OC(F)F [Example 5.5] | 1 to 10 |
| Cn1c(=O)c2ccc(-c3ccnc(N4CCOCC4)c3)cc2n1Cc1ccccc1OC(F)F [Example 5.6] | > 10 |
| Cn1c(=O)c2ccc(-c3cnn(C4CCOCC4)c3)cc2n1Cc1ccccc1OC(F)F [Example 5.7] | > 10 |
| O=c1[nH]n(Cc2ccccc2OC(F)F)c2cc(-c3cnc(N4CCOCC4)nc3)ccc12 [Example 6.1, 1-(2-(difluoromethoxy)benzyl)-6-(2-morpholinopyrimidin-5-yl)-1H-indazol-3(2H)-one] | > 10 |
| Cn1c(=O)c2ccc(-c3cnc(N4CCOCC4)nc3)cc2n1Cc1cc(Cl)ccc1Cl [Example 7.1] | < 1 |
| Cn1c(=O)c2ccc(-c3cnc(N4CCC(C(=O)O)CC4)nc3)cc2n1Cc1cc(Cl)ccc1Cl [Example 7.2] | 1 to 10 |
| Cn1c(=O)c2ccc(-c3cnc(N4CCOCC4)nc3)cc2n1Cc1c(Cl)cccc1Cl [Example 8.1] | 1 to 10 |
| Cn1c(=O)c2ccc(-c3cnc(N4CCNC(=O)C4)nc3)cc2n1Cc1c(Cl)cccc1Cl [Example 8.2] | 1 to 10 |
| Cn1c(=O)c2ccc(-c3cnc(N4CCOCC4)nc3)cc2n1Cc1cc(CO)ccc1OC(F)F [Example 9, 1-(2-(Difluoromethoxy)-5-(hydroxymethyl)benzyl)-2-methyl-6-(2-morpholinopyrimidin-5-yl)-1H-indazol-3(2H)-one] | < 1 |
| O=c1[nH]n(Cc2cc(Cl)ccc2Cl)c2cc(-c3cnc(N4CCOCC4)nc3)ccc12 [Example 9.1] | > 10 |
| CCn1c(=O)c2ccc(-c3cnc(N4CCOCC4)nc3)cc2n1Cc1ccccc1OC(F)F [Example 10, 1-(2-(Difluoromethoxy)benzyl)-2-ethyl-6-(2-morpholinopyrimidin-5-yl)-1H-indazol-3(2H)-one] | 1 to 10 |
| Cn1c(=O)c2ccc(-c3cnc(C(C)(C)O)nc3)cc2n1Cc1ccccc1OC(F)F [Example 10.1] | 1 to 10 |
| Cn1c(=O)c2ccc(-c3cnc(N4CCOCC4)cn3)cc2n1Cc1ccccc1OC(F)F [Example 10.2] | 1 to 10 |
| Cn1c(=O)c2ccc(-c3cnc(N4CCC(C(=O)O)CC4)cn3)cc2n1Cc1ccccc1OC(F)F [Example 10.3] | > 10 |
| CC(Nc1ncc(-c2ccc3c(=O)n(C)n(Cc4ccccc4OC(F)F)c3c2)cn1)C(N)=O (centres unmarked) [Example 10.4] | 1 to 10 |
